According to US10889553B2, “Asymmetric triazole benzamide derivatives and the compositions and methods of treatment regarding the same” (NysnoBio Ireland DAC, priority 2017, dated 2021):
Like-named read-outs stand apart in the source and are kept apart here.

Columns and labels:
CYP2C19 = CYP2C19 (Homo sapiens, UniProt P33261); assay: CYP inhibition assay; assay type: in vitro ADME; conditions: read-out: % Inhibition at 30 μM CYP 2C19
CYP2D6 = CYP2D6 (Homo sapiens, UniProt P10635); assay: CYP inhibition assay; assay type: in vitro ADME; conditions: read-out: % Inhibition at 30 μM CYP 2D6
Chain of CYP2D6 (P10635 whole entry): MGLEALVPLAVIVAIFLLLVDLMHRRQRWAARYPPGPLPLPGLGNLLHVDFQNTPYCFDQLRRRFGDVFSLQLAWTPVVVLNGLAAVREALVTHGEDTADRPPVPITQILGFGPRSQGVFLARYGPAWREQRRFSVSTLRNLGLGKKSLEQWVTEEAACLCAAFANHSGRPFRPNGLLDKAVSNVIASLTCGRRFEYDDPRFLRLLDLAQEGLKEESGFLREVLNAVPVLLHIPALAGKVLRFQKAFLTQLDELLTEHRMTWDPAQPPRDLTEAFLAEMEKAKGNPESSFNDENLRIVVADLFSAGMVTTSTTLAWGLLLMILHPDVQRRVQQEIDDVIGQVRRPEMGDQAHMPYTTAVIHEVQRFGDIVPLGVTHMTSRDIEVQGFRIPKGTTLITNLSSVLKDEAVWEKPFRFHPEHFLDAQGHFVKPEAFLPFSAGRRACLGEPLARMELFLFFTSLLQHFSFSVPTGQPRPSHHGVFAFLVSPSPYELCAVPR

[1] = Oral bioavailability (PO) and pharmacokinetics assay; assay type: in vivo, mice; conditions: mouse
Description: The pharmacokinetics and oral bioavailability of various compounds was evaluated following IV or PO administration to fasted male Sprague-Dawley […] (N=3/route/dose). […] For IV dosing, each compound was formulated in 10% DMA/15% Solutol/75% HPβ-CD (20%) as a 1 mg/mL solution for IV (3 mg/kg), for IP (5 mg/kg) and for PO (10 mg/kg) administrations.
Blood samples (0.250 mL) were collected into EDTA tubes then processed to generate plasma samples. Blood samples were collected at pre-dose, 0.083, 0.25, 0.5, 1, 2, 4, 8 and 24 hours post-dose administration. Plasma concentrations of each compound were determined using LC-MS/MS with a lower limit of quantitation of 1.0 ng/mL. The pharmacokinetic parameters were determined by non-compartmental methods using WinNonlin.
The pharmacokinetic parameters of each compound were determined by non-compartmental analysis (Model 201 for IV administration and Model 200 for PO administration) using WinNonlin Version 6.4 (Pharsight, Mountain View, Calif.). The area under the curve from the time of dosing to the last measurable concentration, AUC(0-t), was calculated by the linear trapezoidal rule. The area under the concentration-time curve extrapolated to infinity, AUC(0-∞), was calculated as follows: AUC(0-∞)=AUC(0-t)+Clast/k
Where Clast is the last measurable concentration and k is the first order rate constant associated with the terminal elimination phase, estimated by linear regression of log concentration versus time. The half-life (T1/2) of the terminal elimination phase was estimated based on the following equation: T1/2=0.693/k
K was determined based on at least three timepoints with R^2≥0.9. Additional parameters were calculated as follows: CL=Dose/AUC(0-∞)
Where CL is the clearance of the compound of the disclosure in L/hr/kg, Dose is the administered dose in mg/kg. Mean residence time (MRT) was calculated as follows: MRT=AUMC(0-∞)/AUC(0-∞)
Where area under the first moment curve extrapolated to infinity (AUMC0-∞)) was calculated as follows: AUMC(0-∞)=AUMClast+tlast*[…]+Clast/k^2
The steady state volume of distribution (Vss) was calculated as follows: Vss=CL×MRT.
The oral bioavailability based on AUC(0-t) was calculated as follows: F(%)=AUCPO/AUCIV×DoseIV/DosePO×100. For IV administration, the initial concentration, Co is reported and is an extrapolated value. For PO administration, the maximum concentration, Cmax is report and is an observed value.

CDK 4/6 or other kinases = assay: Kinase panel assay (whole panel); assay type: biochemical; conditions: 10 μM, in words
Excerpt: Compound 42 was also screened in a kinase panel assay.

[2] = male, Sprague-Dawley, plasma, IP (5 mg/kg)
[3] = male, Sprague-Dawley, plasma, IV bolus (3 mg/kg)
[4] = male, Sprague-Dawley, plasma, PO (10 mg/kg)

Chain of CYP2C19 (P33261 whole entry): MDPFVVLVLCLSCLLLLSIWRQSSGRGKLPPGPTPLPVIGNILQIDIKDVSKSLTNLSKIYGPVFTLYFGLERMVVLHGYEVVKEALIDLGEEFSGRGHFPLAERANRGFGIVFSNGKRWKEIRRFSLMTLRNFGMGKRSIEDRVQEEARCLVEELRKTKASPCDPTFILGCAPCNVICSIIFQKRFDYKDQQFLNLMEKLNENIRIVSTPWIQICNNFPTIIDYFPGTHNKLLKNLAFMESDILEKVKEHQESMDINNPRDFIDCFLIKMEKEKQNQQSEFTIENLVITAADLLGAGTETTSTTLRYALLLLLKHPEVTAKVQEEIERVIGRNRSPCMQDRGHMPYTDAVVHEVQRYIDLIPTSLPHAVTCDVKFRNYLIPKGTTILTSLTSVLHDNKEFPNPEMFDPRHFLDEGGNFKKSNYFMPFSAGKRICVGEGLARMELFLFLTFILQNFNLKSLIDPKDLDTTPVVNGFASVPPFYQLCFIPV

Cc1ccccc1C(=O)Nc1nc(NC(=O)c2ccccc2C)n(-c2ccc(OC(F)(F)F)cc2)n1 [Compound 42, N,N′-(1-(4-(trifluoromethoxy)phenyl)-1H-1,2,4-triazole-3,5-diyl)bis(2-methylbenzamide)]
inhibition at 30 μM (CYP2C19): 60.5%
inhibition at 30 μM (CYP2D6): 6.87%
bioavailability ([1]; male, Sprague-Dawley, plasma, intraperitoneal, 5 mg/kg, IP (5 mg/kg) vs IV, read-out: F (%)): 50.3%
half-life ([1]; male, Sprague-Dawley, plasma, ip, 5 mg/kg, IP (5 mg/kg)): 47 h
half-life ([1]; male, Sprague-Dawley, plasma, iv, 3 mg/kg): 16 h
half-life ([1]; male, Sprague-Dawley, plasma, iv, 3 mg/kg, IV bolus (3 mg/kg)): 16.4 h
Vd ([1]; male, Sprague-Dawley, plasma, iv, 3 mg/kg, IV bolus (3 mg/kg), read-out: Vss): 1.3 L/kg
bioavailability ([1]; male, Sprague-Dawley, plasma, oral, 10 mg/kg, PO (10 mg/kg) vs IV, read-out: F (%) oral bioavailability): 21%
half-life ([1]; male, Sprague-Dawley, plasma, po, 10 mg/kg, PO (10 mg/kg)): 25 h
AUC(0-t) [1, 2]: 21500 ng·h/mL
Cmax [1, 2]: 1400 ng/mL
Tmax [1, 2]: 1.33 h
AUC(0-t) [1, 3]: 25700 ng·h/mL
clearance [1, 3]: 1.49 mL/min/kg
C0 ([1]; male, Sprague-Dawley, plasma, IV bolus (3 mg/kg), extrapolated value): 40500 ng/mL
AUC(0-t) [1, 4]: 18400 ng·h/mL
Cmax [1, 4]: 1060 ng/mL
Tmax [1, 4]: 3.67 h
Vss ([1]; IV bolus (3 mg/kg), 3 mg/kg): 1.32 L/kg
IV clearance ([1]; IV, in words): reasonable
F (%) oral bioavailability ([1]; PO (10 mg/kg) vs IV, 10 mg/kg): 21.4%
inhibition of CDK 4/6 or other kinases (CDK 4/6 or other kinases): does not inhibit
